Assays:
[1] = biological target: T1, Alpha-2C adrenergic receptor (Homo sapiens, UniProt P18825); experiment: In vitro binding affinity measured by displacement of [3H]rauwolscine from alpha-2c adrenergic receptor expressed in CHO cells in presence of phentolamine; format: cell-based
T1 sequence (P18825 whole entry): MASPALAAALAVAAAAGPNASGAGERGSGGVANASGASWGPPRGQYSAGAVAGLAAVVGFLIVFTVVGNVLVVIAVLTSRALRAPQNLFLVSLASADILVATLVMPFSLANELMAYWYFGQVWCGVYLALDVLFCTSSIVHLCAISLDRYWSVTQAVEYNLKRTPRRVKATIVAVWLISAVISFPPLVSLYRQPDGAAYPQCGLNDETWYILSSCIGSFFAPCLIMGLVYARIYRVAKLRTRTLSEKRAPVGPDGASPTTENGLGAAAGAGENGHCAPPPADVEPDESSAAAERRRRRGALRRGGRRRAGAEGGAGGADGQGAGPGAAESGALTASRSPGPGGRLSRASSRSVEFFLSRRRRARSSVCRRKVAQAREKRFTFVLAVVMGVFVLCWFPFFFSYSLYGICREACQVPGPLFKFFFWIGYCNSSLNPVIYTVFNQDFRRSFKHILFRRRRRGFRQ

[2] = biological target: T2, Alpha-2B adrenergic receptor (Homo sapiens, UniProt P18089); experiment: In vitro binding affinity towards alpha-2b adrenergic receptor
T2 sequence (P18089 whole entry): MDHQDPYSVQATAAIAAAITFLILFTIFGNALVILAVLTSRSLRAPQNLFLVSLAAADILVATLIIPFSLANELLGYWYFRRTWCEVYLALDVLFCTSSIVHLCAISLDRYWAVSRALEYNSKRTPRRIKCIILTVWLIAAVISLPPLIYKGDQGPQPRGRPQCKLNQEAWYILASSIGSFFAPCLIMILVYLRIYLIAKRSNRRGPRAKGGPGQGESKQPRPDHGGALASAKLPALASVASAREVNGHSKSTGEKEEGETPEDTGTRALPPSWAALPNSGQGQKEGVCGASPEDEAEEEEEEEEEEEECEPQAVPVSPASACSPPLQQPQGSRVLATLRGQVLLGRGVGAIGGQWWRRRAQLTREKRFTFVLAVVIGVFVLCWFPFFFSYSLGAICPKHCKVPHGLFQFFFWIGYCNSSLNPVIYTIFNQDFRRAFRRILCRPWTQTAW

[3] = biological target: T3, Alpha-2A adrenergic receptor (Homo sapiens, UniProt P08913); experiment: In vitro binding affinity towards alpha-2a adrenergic receptor
T3 sequence (P08913 whole entry): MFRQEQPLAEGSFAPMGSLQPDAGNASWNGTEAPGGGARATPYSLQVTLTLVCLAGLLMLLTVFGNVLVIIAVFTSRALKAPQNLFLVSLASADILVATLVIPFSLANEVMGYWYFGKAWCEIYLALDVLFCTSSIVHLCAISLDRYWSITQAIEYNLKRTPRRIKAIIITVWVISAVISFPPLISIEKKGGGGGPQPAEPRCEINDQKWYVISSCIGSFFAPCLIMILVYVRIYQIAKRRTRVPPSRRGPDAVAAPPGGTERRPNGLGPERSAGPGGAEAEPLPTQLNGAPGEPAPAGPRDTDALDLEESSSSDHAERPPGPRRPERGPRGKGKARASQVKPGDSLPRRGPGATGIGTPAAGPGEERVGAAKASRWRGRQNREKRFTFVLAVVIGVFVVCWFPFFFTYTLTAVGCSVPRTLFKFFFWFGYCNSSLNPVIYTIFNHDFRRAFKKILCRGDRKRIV

| Ki [1] [nM] | Ki [2] [nM] | Ki [3] [nM] | SMILES |
| --- | --- | --- | --- |
| 5.2 |  |  | COC(=O)CNC(=O)CNC(=O)[C@@H]1C2C[C@H]3c4[nH]c5ccccc5c4CCN3C[C@@H]2CC[C@@H]1O (stereo partly specified) |
| 3 |  |  | O=C(O)CCCNC(=O)[C@@H]1C2C[C@H]3c4[nH]c5ccccc5c4CCN3C[C@@H]2CC[C@@H]1O (stereo partly specified) |
| 2.8 |  |  | CC(C)(C)OC(=O)NCCCNC(=O)[C@@H]1C2C[C@H]3c4[nH]c5ccccc5c4CCN3C[C@@H]2CC[C@@H]1O (stereo partly specified) |
| 32 |  |  | NCCCNC(=O)[C@@H]1C2C[C@H]3c4[nH]c5ccccc5c4CCN3C[C@@H]2CC[C@@H]1O (stereo partly specified) |
| 0.65 | 1300 | 29 | O=C(CCCNC(=O)[C@@H]1C2C[C@H]3c4[nH]c5ccccc5c4CCN3C[C@@H]2CC[C@@H]1O)OCc1ccccc1 (stereo partly specified) |
| 1.1 |  |  | O=C(NCCCNC(=O)[C@@H]1C2C[C@H]3c4[nH]c5ccccc5c4CCN3C[C@@H]2CC[C@@H]1O)OCc1ccccc1 (stereo partly specified) |
| 8 |  |  | COC(=O)CNC(=O)[C@@H]1C2C[C@H]3c4[nH]c5ccccc5c4CCN3C[C@@H]2CC[C@@H]1O (stereo partly specified) |
| 8.5 |  |  | O=C(NCCCNC(=O)[C@@H]1C2C[C@H]3c4[nH]c5ccccc5c4CCN3C[C@@H]2CC[C@@H]1O)[C@H]1[C@@H]2C[C@@H]3c4[nH]c5ccccc5c4CCN3C[C@H]2CC[C@H]1O (stereo partly specified) |
| 19 |  |  | O=C(O)[C@@H]1C2C[C@H]3c4[nH]c5ccccc5c4CCN3C[C@@H]2CC[C@@H]1O (stereo partly specified) |

From ChEMBL document CHEMBL1145270 (Bioorg Med Chem Lett, 2005)
